Assay results taken from patent US20020169183A1, “Acridines as stimulators for Fas-mediated apoptosis” (priority 2001, published 2002).

Assays:
Hepatocytes = assay: Fas-dependent apoptosis by FACS analysis (DNA fragmentation, propidium iodide; annexin V); type: cell-based; conditions: at 10 μM
Method: Assays for Fas-dependent apoptosis are known in the art. See, for example, Ruiz-Ruiz et al, Cell Death Diff. 6:271 (1999); and Muller et al., […]. 188:2033 (1998).
Apoptosis is identified by detection of the DNA fragmentation pattern characteristic of apoptotic cell death. In this Example, apoptosis is detected and measured by FACS® analysis carried out in a FACScan® flow cytometer (Becton Dickinson) using CellQuest software. Quantification of DNA fragmentation is performed by FACS® analysis of propidium iodide-stained nuclei as described in Nicolletti et al., J. Immunol. Methods 139:271-279 (1991). Hepatocytes floating in the culture medium are collected by centrifugation at 200× g. Adherent hepatocytes are harvested by incubation with 1% trypsin for 1 min. The cells are washed in phosphate-buffered saline (PBS), suspended in hypotonic lysis buffer (0.1% sodium citrate, 0.1% Triton X, and […] propidium iodide) (Sigma) and incubated at 4° C. for 6 hours. Cells are then analyzed for DNA content by flow cytometry.
Early apoptotic changes are identified using annexin V-Fluos (Boehringer Mannheim) which binds to phosphatidylserine molecules (PS) exposed on apoptotic, but not normal, cell membranes (PS is normally restricted to the inner leaflet of the cell membrane bilayer). […] Cells are incubated for 10-15 min and analyzed on a flow cytometer using CellQuest software. […]

Synoviocytes = assay: Stimulation of Fas-mediated apoptosis: XTT cell viability with anti-human Fas antibody h-HFE7A, stimulation index; type: cell-based; conditions: 10 μM compound with h-HFE7A 1000 ng/mL, synoviocytes from rheumatoid arthritis patients, 16 hours
Source text: Anti-human Fas antibody h-HFE7A, humanized antibody was obtained from Sankyo Co., Ltd. This antibody induces apoptosis when cross-linked with secondary antibody in vitro.
Samples of human synovium were obtained from rheumatoid arthritis patients at the time of total knee replacement surgery or synoviectomy. Synovial tissue was minced into small pieces and was digested with collagenase and cultured in Ham's F12 medium supplemented with 10% fetal bovine serum (F10F) in a humidified 5% CO2 atmosphere at 37° C. Adherent cells were considered as synoviocytes and were cultivated in F10F.
Cell viability was determined with the XTT method described in Cancer Res. 48:4827 (1988). Ninety-six well flat plates were precoated with anti-human IgG. h-HFE7A (1000 ng/mL) and/or 10 μM of a compound of this invention were added and incubated for 2 hours. Synoviocytes were seeded (10,000/well) and incubated for 16 hours. Background wells received culture medium only. XTT (2,3-Bis[2-methoxy-4-nitro-sulfophenyl]-2H-tetrazolium-5-carboxanilide), final concentration 200 μg/mL, and phenazine methosulfate, final concentration 5 μM, were added to each well, and further incubated for 4 hours. The absorbance at 450 nm was measured and cell viability was determined as follows: [formula]
Enhancement of Fas-mediated apoptosis by compounds of this invention was determined by the stimulation index (SI): [formula] […]

Structure (SMILES): CCN(CC)CCCNc1c2ccccc2nc2ccccc12 [Compound 3, 9-[(3-diethylaminopropyl)amino]acridine]
- stimulation of Fas-dependent apoptosis (Hepatocytes): shows stimulation
- Enhancement of Fas-mediated apoptosis, stimulation index (SI) (Synoviocytes): positive (An SI over 2.0 was considered positive)
